pEC50: −log10 of the molar value.
Each compound was assayed against T1, hGPR119 (Homo sapiens, UniProt Q8TDV5) (assay: In vitro cyclic AMP assay (Cisbio dynamic 2 HTRF kit) in CHO-hGPR119 cells). Settings: 1 h, cAMP, compound at 1 μM, 60 min, read-out: Induction (% induction at 1 μM).
T1 construct: expressed in transfected cells; host or cells: CHO
T1 sequence (Q8TDV5 1-335): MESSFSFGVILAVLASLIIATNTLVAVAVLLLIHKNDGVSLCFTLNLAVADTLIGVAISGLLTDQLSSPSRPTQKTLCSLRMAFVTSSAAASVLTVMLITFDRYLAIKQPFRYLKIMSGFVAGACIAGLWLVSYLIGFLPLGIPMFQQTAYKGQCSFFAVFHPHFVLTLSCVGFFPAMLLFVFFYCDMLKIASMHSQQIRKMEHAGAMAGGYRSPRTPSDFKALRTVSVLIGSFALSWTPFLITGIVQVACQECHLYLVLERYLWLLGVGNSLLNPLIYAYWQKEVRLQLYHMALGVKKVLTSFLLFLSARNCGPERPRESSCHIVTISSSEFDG
Format: cell-based
Protocol: cAMP measurements were done using Cisbio dynamic 2 HTRF kit according to the manufacturer's protocol. Briefly, CHO-hGPR119 cells were plated at a cell density of 5000 cells/well/5 μl into a white small volume 384 well plate. The final concentrations of IBMX and DMSO used were 1 mM and 0.5% respectively. Cells were treated with various concentrations of the test compound for 60 min at room temperature. Cells were lysed by buffer containing Anti-cAMP antibody and d2-cAMP reagents and incubated for 1 hour at room temperature. HTRF was measured at 337 nm excitation and emission wavelengths of 665 nm and 620 nm on a microplate reader (Flurostar, BMG Labtech). Graphpad prism software was utilized for EC50 determinations.

Structure (SMILES) | activation at 1 µM [%]
C[C@H](Oc1nc2ccc(-c3ccc(S(C)(=O)=O)nc3)nc2s1)C1CCN(c2nc(C(F)(F)F)no2)CC1 (stereo in doubt) [Compound 1145, 2-(1-(1-(3-(trifluoromethyl)-1,2,4-oxadiazol-5-yl)piperidin-4-yl)ethoxy)-5-(6-(methylsulfonyl)pyridin-3-yl)thiazolo[5,4-b]pyridine] | 65
CC(C)c1noc(N2CCC(C(C)Oc3nc4ccc(-c5ccc(S(=O)(=O)C6CC6)nc5)nc4s3)CC2)n1 (stereo in doubt) [Compound 1164, 2-((S)-1-(1-(3-isopropyl-1,2,4-oxadiazol-5-yl)piperidin-4-yl)ethoxy)-5-(6-(cyclopropylsulfonyl)pyridin-3-yl)thiazolo[5,4-b]pyridine] | 72
CC(C)c1noc(N2CCC(Oc3nc4ccc(Oc5ccc(S(C)(=O)=O)cc5)nc4s3)CC2)n1 [Compound 1005, 3-isopropyl-5-(4-((5-(4-(methylsulfonyl)phenoxy)thiazolo[5,4-b]pyridin-2-yl)oxy)piperidin-1-yl)-1,2,4-oxadiazole] | 6
CC(C)c1noc(N2CCC(Oc3nc4ccc(-c5ccc(S(C)(=O)=O)cc5)nc4s3)CC2)n1 [Compound 1007, 3-isopropyl-5-(4-((5-(4-(methylsulfonyl)phenyl)thiazolo[5,4-b]pyridin-2-yl)oxy)piperidin-1-yl)-1,2,4-oxadiazole] | 39
CC(C)OC(=O)N1CC=C(c2nc3ccc(-c4ccc(S(C)(=O)=O)cc4)nc3s2)CC1 [Compound 1011, isopropyl 4-(5-(4-(methylsulfonyl)phenyl)thiazolo[5,4-b]pyridin-2-yl)-5,6-dihydropyridine-1(2H)-carboxylate] | 19
CC(C)OC(=O)N1CCN(c2nc3ccc(-c4ccc(S(C)(=O)=O)cc4)nc3s2)CC1 [Compound 1012, isopropyl 4-(5-(4-(methylsulfonyl)phenyl)thiazolo[5,4-b]pyridin-2-yl)piperazine-1-carboxylate] | 5
CC(C)OC(=O)N1CCC(c2nc3ccc(-c4ccc(S(C)(=O)=O)cc4)nc3s2)CC1 [Compound 1013, isopropyl 4-(5-(4-(methylsulfonyl)phenyl)thiazolo[5,4-b]pyridin-2-yl)piperidine-1-carboxylate] | 11
CS(=O)(=O)c1ccc(-c2ccc3nc(C4=CCN(CCO)CC4)sc3n2)cc1 [Compound 1015, 2-(4-(5-(4-(methylsulfonyl)phenyl)thiazolo[5,4-b]pyridin-2-yl)-5,6-dihydropyridin-1(2H)-yl)ethanol] | 2
CC(C)OC(=O)Oc1nc2ccc(-c3ccc(S(C)(=O)=O)cc3)nc2s1 [Compound 1019, isopropyl (5-(4-(methylsulfonyl)phenyl)thiazolo[5,4-b]pyridin-2-yl)carbonate] | 0
CC(C)c1noc(N2CCC(C(C)Oc3nc4ccc(-c5ccc(S(C)(=O)=O)cc5)nc4s3)CC2)n1 (stereo not shown) [Compound 1020, 3-isopropyl-5-(4-(1-((5-(4-(methylsulfonyl)phenyl)thiazolo[5,4-b]pyridin-2-yl)oxy)ethyl)piperidin-1-yl)-1,2,4-oxadiazole] | 68
CC(C)c1noc(C2CCN(c3nc4ccc(-c5ccc(C(=O)N(C)C)cc5)nc4s3)CC2)n1 [Compound 1022, 4-(2-(4-(3-isopropyl-1,2,4-oxadiazol-5-yl)piperidin-1-yl)thiazolo[5,4-b]pyridin-5-yl)-N,N-dimethylbenzamide] | 35
Cc1ccc(S(=O)(=O)N2CC=C(c3nc4ccc(-c5ccc(S(C)(=O)=O)cc5)nc4s3)CC2)cc1 [Compound 1026, 5-(4-(methylsulfonyl)phenyl)-2-(1-tosyl-1,2,3,6-tetrahydropyridin-4-yl)thiazolo[5,4-b]pyridine] | 5
CN(C)C(=O)N1CCC(c2nc3ccc(-c4ccc(S(C)(=O)=O)cc4)nc3s2)CC1 [Compound 1028, N,N-dimethyl-4-(5-(4-(methylsulfonyl)phenyl)thiazolo[5,4-b]pyridin-2-yl)piperidine-1-carboxamide] | 2
CC(C)c1noc(C2CCN(c3nc4ccc(-c5ccc(C(=O)N6CCOCC6)cc5)nc4s3)CC2)n1 [Compound 1029, (4-(2-(4-(3-isopropyl-1,2,4-oxadiazol-5-yl)piperidin-1-yl)thiazolo[5,4-b]pyridin-5-yl)phenyl)(morpholino)methanone] | 47
CC(C)c1noc(N2CCC([C@H](C)Oc3nc4ccc(-c5ccc(S(C)(=O)=O)cc5)nc4s3)CC2)n1 [Compound 1031, (S)-3-isopropyl-5-(4-(1-((5-(4-(methylsulfonyl)phenyl)thiazolo[5,4-b]pyridin-2-yl)oxy)ethyl)piperidin-1-yl)-1,2,4-oxadiazole] | 76
CC(C)c1noc(N2CCC([C@@H](C)Oc3nc4ccc(-c5ccc(S(C)(=O)=O)cc5)nc4s3)CC2)n1 [Compound 1032, (R)-3-isopropyl-5-(4-(1-((5-(4-(methylsulfonyl)phenyl)thiazolo[5,4-b]pyridin-2-yl)oxy)ethyl)piperidin-1-yl)-1,2,4-oxadiazole] | 13

The remaining lines, values ahead:

activation at 1 µM [%] | Structure (SMILES)
22 | Cc1nc(S(C)(=O)=O)ccc1-c1ccc2nc(OC(C)C3CCN(c4nc(C(C)C)no4)CC3)sc2n1 (stereo in doubt) [Compound 1168, 2-((S)-1-(1-(3-isopropyl-1,2,4-oxadiazol-5-yl)piperidin-4-yl)ethoxy)-5-(2-methyl-6-(methylsulfonyl)pyridin-3-yl)thiazolo[5,4-b]pyridine]
29 | CC(C)c1noc(C2CCN(c3ccc4nc(-c5ccc(S(C)(=O)=O)cc5)sc4n3)CC2)n1 [Compound 1003, 3-isopropyl-5-(1-(2-(4-(methylsulfonyl)phenyl)thiazolo[5,4-b]pyridin-5-yl)piperidin-4-yl)-1,2,4-oxadiazole]
45 | CC(C)c1noc(C2CCN(c3nc4ccc(-c5ccc(S(C)(=O)=O)cc5)nc4s3)CC2)n1 [Compound 1004, 3-isopropyl-5-(1-(5-(4-(methylsulfonyl)phenyl)thiazolo[5,4-b]pyridin-2-yl)piperidin-4-yl)-1,2,4-oxadiazole]
31 | CC(C)c1noc(N2CCC(COc3nc4ccc(-c5ccc(S(C)(=O)=O)cc5)nc4s3)CC2)n1 [Compound 1006, 3-isopropyl-5-(4-(((5-(4-(methylsulfonyl)phenyl)thiazolo[5,4-b]pyridin-2-yl)oxy)methyl)piperidin-1-yl)-1,2,4-oxadiazole]
3 | CCc1cnc(N2CCN(c3nc4ccc(-c5ccc(S(C)(=O)=O)cc5)nc4s3)CC2)nc1 [Compound 1008, 2-(4-(5-ethylpyrimidin-2-yl)piperazin-1-yl)-5-(4-(methylsulfonyl)phenyl)thiazolo[5,4-b]pyridine]
5 | CS(=O)(=O)c1ccc(-c2nc3ccc(OCC4CCN(Cc5ccccc5)CC4)nc3s2)cc1 [Compound 1009, 5-((1-benzylpiperidin-4-yl)methoxy)-2-(4-(methyslulfonyl)phenyl)thiazolo[5,4-b]pyridine]
8 | CCc1cnc(N2CCN(c3nc4ccc(Oc5ccc(S(C)(=O)=O)cc5)nc4s3)CC2)nc1 [Compound 1010, 2-(4-(5-ethylpyrimidin-2-yl)piperazin-1-yl)-5-(4-(methylsulfonyl)phenoxy)thiazolo[5,4-b]pyridine]
5 | CCc1cnc(N2CCC(C(=O)Nc3nc4ccc(-c5ccc(S(C)(=O)=O)cc5)nc4s3)CC2)nc1 [Compound 1014, 1-(5-ethylpyrimidin-2-yl)-N-(5-(4-(methylsulfonyl)phenyl)thiazolo[5,4-b]pyridin-2-yl)piperidine-4-carboxamide]
0 | CC(C)OC(=O)N1CCC(N(C)c2nc3ccc(-c4ccc(S(C)(=O)=O)cc4)nc3s2)CC1 [Compound 1016, isopropyl 4-(methyl(5-(4-(methylsulfonyl)phenyl)thiazolo[5,4-b]pyridin-2-yl)amino)piperidine-1-carboxylate]
13 | CC(C)c1noc(C2CCN(c3nc4ccc(-c5ccc(S(C)(=O)=O)cc5)nc4s3)C2)n1 (stereo not shown) [Compound 1021, 3-isopropyl-5-(1-(5-(4-(methylsulfonyl)phenyl)thiazolo[5,4-b]pyridin-2-yl)pyrrolidin-3-yl)-1,2,4-oxadiazole]
53 | COCCNC(=O)c1ccc(-c2ccc3nc(N4CCC(c5nc(C(C)C)no5)CC4)sc3n2)cc1 [Compound 1024, 4-(2-(4-(3-isopropyl-1,2,4-oxadiazol-5-yl)piperidin-1-yl)thiazolo[5,4-b]pyridin-5-yl)-N-(2-methoxyethyl)benzamide]
12 | CC(C)c1noc(C2CCN(c3nc4ccc(Nc5ccc(S(C)(=O)=O)c(F)c5)nc4s3)CC2)n1 [Compound 1025, N-(3-fluoro-4-(methylsulfonyl)phenyl)-2-(4-(3-isopropyl-1,2,4-oxadiazol-5-yl)piperidin-1-yl)thiazolo[5,4-b]pyridin-5-amine]
3 | CN(C)C(=O)N1CC=C(c2nc3ccc(-c4ccc(S(C)(=O)=O)cc4)nc3s2)CC1 [Compound 1027, N,N-dimethyl-4-(5-(4-(methylsulfonyl)phenyl)thiazolo[5,4-b]pyridin-2-yl)-5,6-dihydropyridine-1(2H)-carboxamide]

Same assay, conditions: cAMP

pEC50 | Structure (SMILES)
6.30 to 7.00 | CC(C)c1noc(N2CCC(C(C)Oc3nc4ccc(-c5ccc(S(C)(=O)=O)cc5)nc4s3)CC2)n1 (stereo not shown) [Compound 1020, 3-isopropyl-5-(4-(1-((5-(4-(methylsulfonyl)phenyl)thiazolo[5,4-b]pyridin-2-yl)oxy)ethyl)piperidin-1-yl)-1,2,4-oxadiazole]
7.00 to 7.30 | CC(C)c1noc(N2CCC([C@H](C)Oc3nc4ccc(-c5ccc(S(C)(=O)=O)cc5)nc4s3)CC2)n1 [Compound 1031, (S)-3-isopropyl-5-(4-(1-((5-(4-(methylsulfonyl)phenyl)thiazolo[5,4-b]pyridin-2-yl)oxy)ethyl)piperidin-1-yl)-1,2,4-oxadiazole]
